According to US20160250185A1, “PHARMACEUTICAL COMPOSITION FOR C[…] MASS GAIN […]-PHENOTROPIL” (LATVIAN INSTITUTE OF ORGANIC SYNTHESIS, priority 2013, published 2016):
Entries after “also recorded” stand apart in the source; their conditions may differ. Marks after values point to notes of the source that are not given here.

Tests used:
[1] = nootropic activity, literature (Malykh, Sadaie 2010); cited from earlier work
[2] = Cylinder test, muscle strength and coordination; format: in vivo; conditions: for effect on muscle strength and coordination: cylinder, traction and rotating rod tests, up to 500 mg/kg
Description: (§1) None of the compounds affected rectal temperature at the dose of 500 mg/kg (Table 1).
(§2) The compounds were administered in i.p. doses of 50, 100, 250 and 500 mg/kg. The effect of the substances in different tests was evaluated 30, 60, 120 and 180 min after the administration of the compounds. ED50 value was calculated by, performing probit analysis.

[3] = Open field test, locomotor activity; format: in vivo; conditions: for locomotor effect compared with R-phenotropil: respective doses, S-enantiomer at 50 mg/kg; for time for which increase in locomotor activity was retained: single i.p., 50 mg/kg stated for R-phenotropil
Description: Locomotor activity was tested in an open field test 30, 60, 120, 180 and 240 min after a single i.p. injection of the racemic phenotropil and R- and S-enantiomers (FIG. 1A,B,C,D). […] R-phenotropil in 5, 10 and 50 mg/kg doses induced a statistically significant increase in locomotor activity in comparison with the control animals [F(3.31)=10.37, p<0.0001] (FIG. 1A,C). Furthermore, R-phenotropil in the dose of 50 mg/kg retained a statistically significant increase in locomotor activity for up to 240 min [F(9.80)=24.03, p<0.0001] (FIG. 1B,D).

[4] = Traction test, muscle strength and coordination; format: in vivo; conditions: i.p. 50, 100, 250 and 500 mg/kg, 30-180 min, probit analysis
Description: as §1, §2

[5] = Forced swimming test (duration of immobility), antidepressive effect; format: in vivo; conditions: for doses significantly reducing duration of immobility vs control group: 30 min after i.p. injection, doses tested 10, 50 and 100 mg/kg
Description: The antidepressive effect of the racemic, R- and S-phenotropil was tested in a forced swimming test (by determining the duration of immobility) 30 min after the i.p. injection of the compounds in doses 10, 50 and 100 mg/kg (FIG. 2).

[6] = Rotating rod test, muscle strength and coordination; format: in vivo; conditions: i.p. 50, 100, 250 and 500 mg/kg, 30-180 min, probit analysis
Description: as §1, §2

Rectal temperature = format: in vivo; conditions: i.p. 50, 100, 250 and 500 mg/kg, 30-180 min, probit analysis
Description: as §1, §2

mice = experiment: Passive avoidance test, latent period of the remembering process; format: in vivo; conditions: for effect on latent period / passive avoidance: dose not given; for increase of latent period in comparison with control group: mice
Description: The influence of racemic, R- and S-phenotropil on memory processes was determined by means of a passive avoidance test (PCR), by registering the latent period of the remembering process.

Zucker fa/fa rats = experiment: Body mass gain in Zucker fa/fa rats, 12 weeks oral administration; format: in vivo
Description: The influence of an S-phenotropil containing composition on the body mass. Zucker fa/fa (HsdOla:Zucker-Lepfre; Harlan Laboratories) and Zucker lean line rats (HsdOla:Zucker-Lean; Harlan Laboratories) with the body mass of 100-170 g were used during the experiment. At the beginning of the experiment the animals were 6 weeks old. Standard conditions for keeping the experimental animals were ensured (air temperature 21° C.-23° C., relative air humidity 65%±10%, 12 hour light/darkness cycle). Standardised feed (R70) by the company LABFOR (Lactamin AB, Sweden) was used to feed the animals, drinking water was accessible without limitations.
S-phenotropil containing pharmaceutical composition in water or water was orally administered to the mature male rats included into the experimental group once daily in the morning: To the Zucker lean group (n=10), water p.o., to the Zucker fa/fa control group (n=10), water p.o. or to the Zucker fa/fa group S-phenotropil containing composition 50 mg/kg (n=5), p.o. The resulting values were expressed as mean values±standard error of the mean (S.E.M.) T-test was used to check the validity of the results. The results were considered valid, if the p value was less than 0.05. […] Since the increase in mass for ZuckerLean control rats is primarily connected with normal increase in muscle mass, as the animals grow, the effect of S-phenotropil in terms of the increase of ZuckerFF fat mass is 39% (FIG. 6).

[7] = i.p. 50, 100, 250 and 500 mg/kg, 30-180 min, probit analysis
[8] = Zucker fa/fa rats, 50 mg/kg p.o. once daily, mean ± S.E.M.

SMILES	effect on muscle strength and coordination [2]	ED50 Cylinder [2, 7]	locomotor effect compared with R-phenotropil [3]	time for which increase in locomotor activity was retained [3]	ED50 Traction [4]	doses significantly reducing duration of immobility vs control group [5]	ED50 Rotating rod [6]	ED50 Rectal temperature (Rectal temperature)	effect on latent period in comparison with control group (mice; 1 mg/kg)	effect on latent period / passive avoidance (mice)	further results
NC(=O)CN1CC(c2ccccc2)CC1=O (racemic) [Phenotropil racemate]	did not affect muscle strength and coordination	>500 mg/kg	less active than R-phenotropil	up to 180 min	>500 mg/kg	100 mg/kg	>500 mg/kg	>500 mg/kg	significantly increased the latent period		activity relative to piracetam [1]: 30-60 times
NC(=O)CN1C[C@@H](c2ccccc2)CC1=O [R-phenotropil]		258 ± 25 mg/kg		up to 240 min	250 ± 40 mg/kg		320 ± 60 mg/kg	>500 mg/kg	significantly increased the latent period	considerably affects memory	reduction of duration of immobility in comparison with control group ([5]; 100 mg/kg i.p., 30 min): 8 times; antidepressive effect compared with the other tested compounds / control ([5]; i.p., 30 min after injection): significantly higher in comparison with racemic and S-phenotropil; increase of latent period in comparison with control group (mice; 1 mg/kg): 195%; increase of latent period in comparison with control group (mice; 10 mg/kg): 185%
NC(=O)CN1C[C@H](c2ccccc2)CC1=O [S-phenotropil, (S)-2-(2-oxo-4-phenylpyrrolidin-1-yl)acetamide]	did not affect muscle strength and coordination		statistically significantly weaker than the effect of R-enantiomer			100 mg/kg				does not have any effect in a passive avoidance test; also recorded: did not affect the latent period	ED50 ([2]; in vivo, intraperitoneal, i.p. 50, 100, 250 and 500 mg/kg, 30-180 min, probit analysis): > 500 mg/kg; dose for statistically significant effect on locomotor activity relative to R-phenotropil [3]: 10 times; doses inducing statistically significant increase in locomotor activity vs control animals ([3]; single i.p. injection): 50 mg/kg; ED50 ([4]; in vivo, intraperitoneal): > 500 mg/kg; ED50 ([6]; in vivo, intraperitoneal): > 500 mg/kg; effect on weight increase (Zucker fa/fa rats; Zucker FF rats, 12 weeks, 50 mg/kg p.o.): statistically significantly reduced the weight increase; Increase in fat mass in Week 12 (Zucker fa/fa rats; [8]): 106 ± 7 g; Weight increase in Week 12 (Zucker fa/fa rats; [8]): 2645 ± 30*^, # AUC units; reduction of total weight gain (Zucker fa/fa rats; Zucker fa/fa rats, 50 mg/kg p.o., 12 weeks): 22%; effect in terms of the increase of ZuckerFF fat mass (Zucker fa/fa rats; Zucker fa/fa rats, 50 mg/kg p.o., 12 weeks, relative to Zucker lean growth): 39%; ED50 (Rectal temperature; in vivo, intraperitoneal): > 500 mg/kg
